Assay results as given in US20250145606A1 (Arcus Biosciences, Inc., priority 2023, published 2025).
Read-outs that look alike come from different tables or passages of the source. Marks after values point to notes of the source that are not given here.

Legend:
[1] = test system: Phospho-KIT (Y703) in M07e cells; assay: Phospho-KIT (Y703) cellular assay in M07e cells; format: cell-based; details: M-07e, read-out: M07e Cell IC50
Procedure, shortened: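 Serum-starved M07e cells preincubated 50 min at 37° C with 11-point half-log compound titration, then stimulated 10 min with SCF at 90.9 ng/mL final. Fixed, permeabilized cells stained for phospho-KIT Y703 and read by flow cytometry (live-gated geometric mean); IC50 by 4-parameter fit normalized to DMSO and positive control.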

[2] = test system: Sprague Dawley rat hepatocytes; assay: Bioactivation assessment in rat hepatocytes; format: in vitro ADME; details: 5 μM, 4 hours
Method: (§1) Bioactivation Assessment Procedure
(§2) Pooled male Sprague Dawley rat (BioIVT), male beagle dog (BioIVT), male cynomolgus monkey (BioIVT), and a 50-donor pool of cryopreserved human hepatocytes (BioIVT) was thawed in pre-warmed 37° C. InVitroGro™ HT media (BioIVT), centrifuged, and resuspended in the InVitroGro™ HI media (BioIVT). The number of viable cells was determined by the Trypan blue exclusion method. The cells were diluted to a concentration of two million viable cells per milliliter (viability >80%) and seeded into round-bottom 96-well plates. The test articles were dissolved in DMSO and further diluted in 50% CH3CN and InVitroGro™ HI media with final concentrations of 0.05% DMSO and 0.5% CH3CN in the incubation mixture. Incubation was performed at a final concentration of one million cells per milliliter and 5 μM test compounds with continuous shaking at 1100 rpm in a 37° C., 5/95% CO2/air incubator with 100% relative humidity. After 4 hours, the samples were quenched by addition of 3 volumes of CH3CN, vortexed for 15 minutes, and centrifuged at 4200 rpm for 15 minutes at 10° C. (Sorvall Legend XTR centrifuge, Thermo Scientific, Langenselbold, Germany). 80 μL of the resulting supernatant was transferred into a new plate and mixed with 160 μL water followed by liquid chromatography-high resolution mass spectrometry (LC-HRMS) analysis.
(§3) Structural assignments of metabolites were determined through mass spectral analysis. The level of bioactivation was estimated based on the relative peak area of bioactivation products to all identified metabolites. The following equation was used: […]
(§4) Bioactivation products included glutathione conjugates, imine methides, quinones, diols, and other relevant metabolites.

human hepatocytes = assay: Bioactivation assessment in human hepatocytes; format: in vitro ADME; details: 5 μM, 4 hours
Method: as §1, §2, §3, §4

[3] = test system: cynomolgus monkey hepatocytes; assay: Bioactivation assessment in monkey hepatocytes; format: in vitro ADME; details: 5 μM, 4 hours
Method: as §1, §2, §3, §4

[4] = phospho-KIT (Y703), SCF-stimulated M07e cells

Row | Structure (SMILES) | IC50 [1] [nM] | Percent of total metabolism via bioactivation, Rat hepatocytes [2] | Percent of total metabolism via bioactivation, Human hepatocytes (human hepatocytes) | Percent of total metabolism via bioactivation, Monkey hepatocytes [3] [%] | IC50 [1, 4] [nM] | IC50 ([1]; Phospho-KIT (Y703), M07e cells) [nM]
1 | Cc1ncc(C(=O)Nc2cc(C(=O)Nc3ccc(CC(F)(F)F)cn3)c(F)cc2C)s1 [Example 1, N-[4-Fluoro-2-methyl-5-[[5-(2,2,2-trifluoroethyl)pyridin-2-yl]carbamoyl]phenyl]-2-methyl-1,3-thiazole-5-carboxamide] | < 100 | 3-7%^b | <0.1%^b | 4 |  | 
2 | Cc1ncc(C(=O)Nc2cc(C(=O)Nc3ccc(OC4CC4)cn3)c(F)cc2C)s1 [Example 2, N-[5-[(5-Cyclopropyloxypyridin-2-yl)carbamoyl]-4-fluoro-2-methylphenyl]-2-methyl-1,3-thiazole-5-carboxamide] |  | 1-2%ª |  |  | < 100 | 
3 | Cc1ncc(C(=O)Nc2cc(C(=O)Nc3ccc(C4CC4)cn3)c(F)cc2C)s1 [Example 3, N-[5-[(5-Cyclopropylpyridin-2-yl)carbamoyl]-4-fluoro-2-methylphenyl]-2-methyl-1,3-thiazole-5-carboxamide] | < 100 | <0.1% | <0.1% | 2 |  | 
4 | Cc1ncc(C(=O)Nc2cc(C(=O)Nc3cnc(OCC(C)(F)F)cn3)c(F)cc2C)s1 [Example 4, N-[5-[[5-(2,2-Difluoropropoxy)pyrazin-2-yl]carbamoyl]-4-fluoro-2-methylphenyl]-2-methyl-1,3-thiazole-5-carboxamide] |  | <1%^a |  |  | < 100 | 
5 | Cc1ncc(C(=O)Nc2cc(C(=O)Nc3ccc(CC4CC4)cn3)c(F)cc2C)s1 [Example 5, N-[5-[[5-(Cyclopropylmethyl)pyridin-2-yl]carbamoyl]-4-fluoro-2-methylphenyl]-2-methyl-1,3-thiazole-5-carboxamide] | < 100 | <1% | <1% | <1 |  | 
6 | Cc1ncc(C(=O)Nc2cc(C(=O)Nc3ccc(OC(F)F)cn3)c(F)cc2C)s1 [Example 38, N-[5-[[5-(difluoromethoxy)pyridin-2-yl]carbamoyl]-4-fluoro-2-methylphenyl]-2-methyl-1,3-thiazole-5-carboxamide] |  | 2% |  |  |  | < 100
7 | Cc1ncc(C(=O)Nc2cc(C(=O)Nc3ccc(CC(F)(F)F)cn3)c(F)cc2Cl)s1 [Example 46, N-[2-chloro-4-fluoro-5-[[5-(2,2,2-trifluoroethyl)pyridin-2-yl]carbamoyl]phenyl]-2-methyl-1,3-thiazole-5-carboxamide] |  | 80% |  |  |  | < 100
